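Five concentrations, 48 hours, 96-well plates. At the TGI there is no net growth.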

Among the data in PubChem BioAssay (NCI) are TGI values, retold here.

Some test systems named below: HOP-62 NSCLC; DU-145 prostate; SF-539 CNS; T-47D breast; COLO 205 colon; TK-10 renal; SW-620 colon; U251 CNS; SNB-75 CNS; NCI-H23 lung.
Assay in all cases: growth of human tumour cells (NCI), 48 h

With `CCOC(=O)C1=CN(C(=O)c2ccccc2)CCC1Cc1ccccc1` (stereo unspecified), the TGI was greater than 100 µM in the experiment with HOP-62 NSCLC; greater than 100 µM in the experiment on DU-145 prostate; 63.6 µM in the experiment with SF-539 CNS; 72.8 µM with T-47D breast; 51.9 µM in the experiment on COLO 205 colon; 75.3 µM with TK-10 renal. For the same compound, the TGI was greater than 100 µM with SW-620 colon, 51.9 µM in the experiment on U251 CNS, 70.3 µM in the experiment on SNB-75 CNS and greater than 100 µM with NCI-H23 lung.
Regarding `Cc1nn(C(=O)c2ccc(Cl)cc2)c2c1C(c1ccco1)SC(N)=N2` (stereo unspecified), the TGI with HOP-62 NSCLC, in the experiment on DU-145 prostate, with SF-539 CNS, in the experiment with T-47D breast, with COLO 205 colon and in the experiment on TK-10 renal was greater than 10 µM each time. The TGI in the experiment on SW-620 colon, with U251 CNS, in the experiment on SNB-75 CNS and in the experiment on NCI-H23 lung was greater than 10 µM each time.
For the compound `CN(/N=C/c1ccc(Cl)c(Cl)c1)C1=NCCN1`, the TGI with HOP-62 NSCLC was 37.7 µM; in the experiment with DU-145 prostate it was greater than 100 µM; with SF-539 CNS, 40.4 µM; in the experiment on T-47D breast, 90.8 µM; in the experiment on COLO 205 colon, 38.9 µM; in the experiment with TK-10 renal, greater than 100 µM. Moreover, the TGI with SW-620 colon was 54.4 µM; in the experiment on U251 CNS, 59.8 µM; in the experiment with SNB-75 CNS it was greater than 100 µM; in the experiment with NCI-H23 lung, greater than 100 µM.
As to `CCOC(=O)CCC(NC(=O)c1ccc(NCc2ccc3nc(-c4ccccc4)c(Cl)nc3c2)c2ccccc12)C(=O)OCC` (stereo unspecified), the TGI with HOP-62 NSCLC, in the experiment with DU-145 prostate, with SF-539 CNS, in the experiment with T-47D breast, in the experiment on COLO 205 colon and in the experiment on TK-10 renal was greater than 100 µM each time. In addition, the TGI in the experiment with SW-620 colon, in the experiment with U251 CNS, with SNB-75 CNS and in the experiment on NCI-H23 lung was greater than 100 µM each time.
As to `OC1(c2ccc(Cl)cc2)c2ccccc2C2=NCc3ccccc3CN21` (stereo unspecified), the TGI with HOP-62 NSCLC was 21.9 µM; with DU-145 prostate, 34.7 µM; in the experiment on SF-539 CNS it was 24.4 µM; in the experiment on T-47D breast it was greater than 61.7 µM; in the experiment with COLO 205 colon, 19 µM; with TK-10 renal it was 28.9 µM. The TGI is 15.8 µM in the experiment on SW-620 colon, 25.1 µM in the experiment with U251 CNS, 19.4 µM in the experiment on SNB-75 CNS and 23.7 µM in the experiment on NCI-H23 lung.
Regarding `Cc1ccc(C2(c3ccc(C)c(O)c3C)CCN(C)CC2)c(C)c1O`, the TGI in the experiment on HOP-62 NSCLC is greater than 100 µM; in the experiment on DU-145 prostate it was greater than 100 µM; in the experiment on T-47D breast it was greater than 100 µM; with TK-10 renal, 74.4 µM; in the experiment with SW-620 colon it was greater than 100 µM; in the experiment with U251 CNS, greater than 100 µM. The TGI in the experiment on SNB-75 CNS and in the experiment on NCI-H23 lung was greater than 100 µM each time.
Turning to `O=C1OC(C(O)C(O)C(O)CO)C(O)C1O` (stereo unspecified), the TGI in the experiment on HOP-62 NSCLC, in the experiment on DU-145 prostate, with SF-539 CNS, in the experiment on T-47D breast, in the experiment on COLO 205 colon and in the experiment with TK-10 renal was greater than 100 µM in each case. For the same compound, the TGI in the experiment on SW-620 colon, with U251 CNS, in the experiment with SNB-75 CNS and with NCI-H23 lung was greater than 100 µM in each case.
Turning to `CC12CCC(C1)C(C)(C)C2OC(=O)c1ccccc1C(=O)O` (stereo unspecified), the TGI in the experiment with HOP-62 NSCLC, in the experiment on DU-145 prostate, in the experiment on T-47D breast, in the experiment on COLO 205 colon, in the experiment with TK-10 renal and in the experiment on SW-620 colon was greater than 100 µM each time. For the same compound, the TGI in the experiment on U251 CNS, with SNB-75 CNS and in the experiment on NCI-H23 lung was greater than 100 µM in each case.
`Clc1ccc(-c2nn3c(C45CC6CC(CC(C6)C4)C5)nnc3s2)cc1`: the TGI in the experiment with HOP-62 NSCLC, in the experiment with DU-145 prostate, in the experiment on SF-539 CNS, in the experiment with T-47D breast, with COLO 205 colon and with TK-10 renal was greater than 100 µM each time. The TGI in the experiment with SW-620 colon, in the experiment with U251 CNS, in the experiment with SNB-75 CNS and in the experiment on NCI-H23 lung was greater than 100 µM in each case.
For the compound `O=C(NNCc1ccccc1O)c1ccccc1O`, the TGI with HOP-62 NSCLC is greater than 100 µM; in the experiment on DU-145 prostate, 43.4 µM; in the experiment with SF-539 CNS it was greater than 100 µM; with T-47D breast it was 35 µM; in the experiment on COLO 205 colon, greater than 100 µM; in the experiment with TK-10 renal, greater than 100 µM. The TGI in the experiment on SW-620 colon, in the experiment on U251 CNS, in the experiment on SNB-75 CNS and in the experiment on NCI-H23 lung was greater than 100 µM in each case.
As to `CSc1nc(=O)c(C#N)c(-c2ccccc2)n1C1OC(COC(C)=O)C(OC(C)=O)C(OC(C)=O)C1OC(C)=O` (stereo unspecified), the TGI with HOP-62 NSCLC, in the experiment on DU-145 prostate, in the experiment on SF-539 CNS, in the experiment on T-47D breast, in the experiment with COLO 205 colon and in the experiment with TK-10 renal was greater than 100 µM in each case. Further, the TGI in the experiment on SW-620 colon, in the experiment with U251 CNS, in the experiment on SNB-75 CNS and with NCI-H23 lung was greater than 100 µM in each case.
With `CN1CCN(c2c(O)c3c(c(O)c2Cl)C(=O)C=CC3=O)CC1`, the TGI turned out to be 3.36 µM with HOP-62 NSCLC; 3.19 µM in the experiment on DU-145 prostate; 2.32 µM in the experiment on SF-539 CNS; 4.25 µM in the experiment on T-47D breast; 0.38 µM with COLO 205 colon; 1.58 µM in the experiment with TK-10 renal. The TGI in the experiment on SW-620 colon stood at 0.369 µM; with U251 CNS, 4.07 µM; in the experiment with SNB-75 CNS it was 3.56 µM; with NCI-H23 lung, 1.54 µM.
For `c1ccc2nn(C3CCCCO3)nc2c1` (stereo unspecified), the TGI in the experiment on HOP-62 NSCLC, in the experiment on DU-145 prostate, with SF-539 CNS, with T-47D breast, in the experiment on COLO 205 colon and in the experiment with TK-10 renal was greater than 100 µM in each case. In addition, the TGI in the experiment on U251 CNS, with SNB-75 CNS and in the experiment on NCI-H23 lung was greater than 100 µM in each case.
For the compound `COC1=CCC2=C(CCN(C(=O)C3CCC3)C2Cc2ccc(OC)c(O)c2)C1` (stereo unspecified), the TGI with HOP-62 NSCLC is greater than 100 µM; in the experiment on DU-145 prostate, 51.9 µM; with SF-539 CNS it was greater than 100 µM; with T-47D breast, 62.4 µM; in the experiment with COLO 205 colon, 32.1 µM; in the experiment with TK-10 renal, 64.5 µM. Further, the TGI with SW-620 colon was greater than 100 µM; with U251 CNS, greater than 100 µM; with SNB-75 CNS, 35.9 µM; with NCI-H23 lung it was 28.7 µM.
